These results are taken from US12312350B2, “Compounds for inhibiting NLRP3 and uses thereof” (Ventus Therapeutics U.S., Inc., priority 2021, dated 2025).

What is called IC50 is the point on the concentration scale where inhibition reaches its midpoint. Higher therefore signals a need for much substance.

The structures appear in SMILES notation.

The target in this assay is NLRP3 (Homo sapiens, UniProt Q96P20). Put plainly: Human whole blood (hWB) NLRP3 Assay.
Sequence of NLRP3 (Q96P20 whole entry): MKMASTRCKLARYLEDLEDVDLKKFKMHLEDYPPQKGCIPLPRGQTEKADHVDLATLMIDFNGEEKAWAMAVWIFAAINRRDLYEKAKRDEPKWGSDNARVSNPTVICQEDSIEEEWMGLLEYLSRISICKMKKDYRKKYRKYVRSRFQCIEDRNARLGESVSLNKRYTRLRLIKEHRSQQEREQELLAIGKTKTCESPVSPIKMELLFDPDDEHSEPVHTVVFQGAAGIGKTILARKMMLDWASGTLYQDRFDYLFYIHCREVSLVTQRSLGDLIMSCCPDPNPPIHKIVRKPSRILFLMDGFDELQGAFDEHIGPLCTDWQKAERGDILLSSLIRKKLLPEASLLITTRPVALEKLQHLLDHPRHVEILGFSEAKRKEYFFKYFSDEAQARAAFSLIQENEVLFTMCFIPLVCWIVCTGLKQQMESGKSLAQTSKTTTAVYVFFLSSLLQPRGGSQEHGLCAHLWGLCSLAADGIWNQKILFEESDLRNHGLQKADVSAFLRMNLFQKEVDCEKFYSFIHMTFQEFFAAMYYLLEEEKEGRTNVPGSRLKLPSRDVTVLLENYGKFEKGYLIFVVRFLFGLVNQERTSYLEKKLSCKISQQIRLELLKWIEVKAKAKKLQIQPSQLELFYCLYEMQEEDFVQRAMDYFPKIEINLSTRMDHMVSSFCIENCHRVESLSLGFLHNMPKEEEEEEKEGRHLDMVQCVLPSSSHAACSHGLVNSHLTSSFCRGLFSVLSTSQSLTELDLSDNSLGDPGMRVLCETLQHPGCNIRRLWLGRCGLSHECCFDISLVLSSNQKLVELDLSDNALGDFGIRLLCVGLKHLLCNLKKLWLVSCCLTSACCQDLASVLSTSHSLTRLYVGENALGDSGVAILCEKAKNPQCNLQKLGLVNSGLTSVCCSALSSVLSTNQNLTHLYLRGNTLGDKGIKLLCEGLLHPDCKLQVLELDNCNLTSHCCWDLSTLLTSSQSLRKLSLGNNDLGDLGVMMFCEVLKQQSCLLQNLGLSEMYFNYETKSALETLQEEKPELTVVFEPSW

Method: Heparin lithium coated tubes were used to collect blood from volunteers. Blood samples were distributed on 96 well plates using 90 μl per well. […] Human whole blood was drawn from healthy volunteers after obtaining written informed consent.

For `Clc1ccc(-c2nnc(NCC3CCCO3)c3ccncc23)cc1` (stereo not shown), it took 42 µM to reach half-maximal inhibition (IC50).
